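These data come from cells grown in 96-well plates and exposed to compound for 48 hours at five concentrations. At the GI50, growth is halved. Definition used: TGI = concentration required for complete inhibition of growth.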
test system: HL-60(TB) leukemia; test: DTP human tumour cell line panel, 48 h

| Structure (SMILES) | GI50 | TGI |
| --- | --- | --- |
| ClCc1cccc(Cn2cnc3nc(Cl)nc(Cl)c32)c1 | 1.16 µM | 2.38 µM |

test system: HOP-62 NSCLC; test: DTP human tumour cell line panel, 48 h

| Structure (SMILES) | GI50 | TGI |
| --- | --- | --- |
| Cc1cc(C(C)(C)CC(C)(C)C)ccc1OCCOCC[N+](C)(C)Cc1ccccc1 | 1.44 µM | 2.84 µM |
| Cc1ncc(CCCN(C)C)cc1Nc1ncc2c(n1)-c1ccc(C(F)(F)F)cc1NC(=S)C2 | < 0.0155 µM | 1.54 µM |
| COc1ccc(-c2nn(-c3ccc(NC(=O)Nc4cc(C(F)(F)F)cc(C(F)(F)F)c4)cc3)cc2-c2ccncc2)cc1Cl | 3.68 µM | 15.1 µM |
| O=C(CCC1OCCO1)Nc1cc(NCc2ccccc2)ccc1OCc1ccccc1 | – | > 100 µM |
| ClCc1cccc(Cn2cnc3nc(Cl)nc(Cl)c32)c1 | 1.99 µM | 3.44 µM |

test system: HOP-92 NSCLC; test: DTP human tumour cell line panel, 48 h

| Structure (SMILES) | GI50 | TGI |
| --- | --- | --- |
| Cc1cc(C(C)(C)CC(C)(C)C)ccc1OCCOCC[N+](C)(C)Cc1ccccc1 | 1.03 µM | 2.46 µM |
| Cc1ncc(CCCN(C)C)cc1Nc1ncc2c(n1)-c1ccc(C(F)(F)F)cc1NC(=S)C2 | 0.0216 µM | 0.519 µM |
| COc1ccc(-c2nn(-c3ccc(NC(=O)Nc4cc(C(F)(F)F)cc(C(F)(F)F)c4)cc3)cc2-c2ccncc2)cc1Cl | 1.06 µM | 4.35 µM |
| O=C(CCC1OCCO1)Nc1cc(NCc2ccccc2)ccc1OCc1ccccc1 | – | 73.3 µM |
| ClCc1cccc(Cn2cnc3nc(Cl)nc(Cl)c32)c1 | 1.46 µM | 2.78 µM |

test system: HS 578T breast; test: DTP human tumour cell line panel, 48 h

| Structure (SMILES) | GI50 | TGI |
| --- | --- | --- |
| Cc1cc(C(C)(C)CC(C)(C)C)ccc1OCCOCC[N+](C)(C)Cc1ccccc1 | 1.86 µM | 5.16 µM |
| Cc1ncc(CCCN(C)C)cc1Nc1ncc2c(n1)-c1ccc(C(F)(F)F)cc1NC(=S)C2 | 0.0276 µM | 1.14 µM |
| COc1ccc(-c2nn(-c3ccc(NC(=O)Nc4cc(C(F)(F)F)cc(C(F)(F)F)c4)cc3)cc2-c2ccncc2)cc1Cl | 1.53 µM | 6.76 µM |
| O=C(CCC1OCCO1)Nc1cc(NCc2ccccc2)ccc1OCc1ccccc1 | – | > 100 µM |
| ClCc1cccc(Cn2cnc3nc(Cl)nc(Cl)c32)c1 | 0.43 µM | 2.51 µM |

test system: HT29 colon; test: DTP human tumour cell line panel, 48 h

| Structure (SMILES) | GI50 | TGI |
| --- | --- | --- |
| Cc1ncc(CCCN(C)C)cc1Nc1ncc2c(n1)-c1ccc(C(F)(F)F)cc1NC(=S)C2 | < 0.0168 µM | 10.2 µM |
| COc1ccc(-c2nn(-c3ccc(NC(=O)Nc4cc(C(F)(F)F)cc(C(F)(F)F)c4)cc3)cc2-c2ccncc2)cc1Cl | 2.75 µM | > 100 µM |
| O=C(CCC1OCCO1)Nc1cc(NCc2ccccc2)ccc1OCc1ccccc1 | – | 96.6 µM |

test system: IGROV1 ovarian; test: DTP human tumour cell line panel, 48 h

| Structure (SMILES) | GI50 | TGI |
| --- | --- | --- |
| Cc1ncc(CCCN(C)C)cc1Nc1ncc2c(n1)-c1ccc(C(F)(F)F)cc1NC(=S)C2 | 0.43 µM | 1.35 µM |
| COc1ccc(-c2nn(-c3ccc(NC(=O)Nc4cc(C(F)(F)F)cc(C(F)(F)F)c4)cc3)cc2-c2ccncc2)cc1Cl | 3.45 µM | > 100 µM |
| O=C(CCC1OCCO1)Nc1cc(NCc2ccccc2)ccc1OCc1ccccc1 | – | > 100 µM |
| ClCc1cccc(Cn2cnc3nc(Cl)nc(Cl)c32)c1 | 4.45 µM | 8.92 µM |

test system: K-562 leukemia; test: DTP human tumour cell line panel, 48 h

| Structure (SMILES) | GI50 | TGI |
| --- | --- | --- |
| Cc1ncc(CCCN(C)C)cc1Nc1ncc2c(n1)-c1ccc(C(F)(F)F)cc1NC(=S)C2 | < 0.0169 µM | > 34 µM |
| COc1ccc(-c2nn(-c3ccc(NC(=O)Nc4cc(C(F)(F)F)cc(C(F)(F)F)c4)cc3)cc2-c2ccncc2)cc1Cl | 2.77 µM | > 100 µM |
| O=C(CCC1OCCO1)Nc1cc(NCc2ccccc2)ccc1OCc1ccccc1 | – | > 100 µM |
| ClCc1cccc(Cn2cnc3nc(Cl)nc(Cl)c32)c1 | 1.48 µM | 2.95 µM |

test system: KM12 colon; test: DTP human tumour cell line panel, 48 h

| Structure (SMILES) | GI50 | TGI |
| --- | --- | --- |
| Cc1ncc(CCCN(C)C)cc1Nc1ncc2c(n1)-c1ccc(C(F)(F)F)cc1NC(=S)C2 | < 0.0134 µM | 10.9 µM |
| COc1ccc(-c2nn(-c3ccc(NC(=O)Nc4cc(C(F)(F)F)cc(C(F)(F)F)c4)cc3)cc2-c2ccncc2)cc1Cl | 2.1 µM | 7.73 µM |
| O=C(CCC1OCCO1)Nc1cc(NCc2ccccc2)ccc1OCc1ccccc1 | – | 97.9 µM |
| ClCc1cccc(Cn2cnc3nc(Cl)nc(Cl)c32)c1 | 16.7 µM | 35.4 µM |

test system: LOX IMVI melanoma; test: DTP human tumour cell line panel, 48 h

| Structure (SMILES) | GI50 | TGI |
| --- | --- | --- |
| Cc1ncc(CCCN(C)C)cc1Nc1ncc2c(n1)-c1ccc(C(F)(F)F)cc1NC(=S)C2 | 0.0276 µM | 15.1 µM |
| COc1ccc(-c2nn(-c3ccc(NC(=O)Nc4cc(C(F)(F)F)cc(C(F)(F)F)c4)cc3)cc2-c2ccncc2)cc1Cl | 3.31 µM | > 100 µM |
| O=C(CCC1OCCO1)Nc1cc(NCc2ccccc2)ccc1OCc1ccccc1 | – | > 100 µM |

test system: M14 melanoma; test: DTP human tumour cell line panel, 48 h

| Structure (SMILES) | GI50 | TGI |
| --- | --- | --- |
| Cc1ncc(CCCN(C)C)cc1Nc1ncc2c(n1)-c1ccc(C(F)(F)F)cc1NC(=S)C2 | < 0.016 µM | 15.7 µM |
| COc1ccc(-c2nn(-c3ccc(NC(=O)Nc4cc(C(F)(F)F)cc(C(F)(F)F)c4)cc3)cc2-c2ccncc2)cc1Cl | 1.91 µM | 4.4 µM |
| O=C(CCC1OCCO1)Nc1cc(NCc2ccccc2)ccc1OCc1ccccc1 | – | > 100 µM |
| ClCc1cccc(Cn2cnc3nc(Cl)nc(Cl)c32)c1 | 0.854 µM | 2.28 µM |

test system: MALME-3M melanoma; test: DTP human tumour cell line panel, 48 h

| Structure (SMILES) | GI50 | TGI |
| --- | --- | --- |
| Cc1ncc(CCCN(C)C)cc1Nc1ncc2c(n1)-c1ccc(C(F)(F)F)cc1NC(=S)C2 | 0.0312 µM | 23.6 µM |
| COc1ccc(-c2nn(-c3ccc(NC(=O)Nc4cc(C(F)(F)F)cc(C(F)(F)F)c4)cc3)cc2-c2ccncc2)cc1Cl | 2.11 µM | 7.88 µM |
| O=C(CCC1OCCO1)Nc1cc(NCc2ccccc2)ccc1OCc1ccccc1 | – | 62.7 µM |
| ClCc1cccc(Cn2cnc3nc(Cl)nc(Cl)c32)c1 | 6.15 µM | 13 µM |

test system: MCF7 breast; test: DTP human tumour cell line panel, 48 h

| Structure (SMILES) | GI50 | TGI |
| --- | --- | --- |
| Cc1ncc(CCCN(C)C)cc1Nc1ncc2c(n1)-c1ccc(C(F)(F)F)cc1NC(=S)C2 | < 0.0155 µM | 11.2 µM |
| COc1ccc(-c2nn(-c3ccc(NC(=O)Nc4cc(C(F)(F)F)cc(C(F)(F)F)c4)cc3)cc2-c2ccncc2)cc1Cl | 2.86 µM | 9.72 µM |
| O=C(CCC1OCCO1)Nc1cc(NCc2ccccc2)ccc1OCc1ccccc1 | – | > 100 µM |
| ClCc1cccc(Cn2cnc3nc(Cl)nc(Cl)c32)c1 | 0.505 µM | 1.38 µM |

test system: MDA-MB-231 breast; test: DTP human tumour cell line panel, 48 h

| Structure (SMILES) | GI50 | TGI |
| --- | --- | --- |
| Cc1cc(C(C)(C)CC(C)(C)C)ccc1OCCOCC[N+](C)(C)Cc1ccccc1 | 1.33 µM | 2.75 µM |
| Cc1ncc(CCCN(C)C)cc1Nc1ncc2c(n1)-c1ccc(C(F)(F)F)cc1NC(=S)C2 | < 0.0153 µM | 0.302 µM |
| COc1ccc(-c2nn(-c3ccc(NC(=O)Nc4cc(C(F)(F)F)cc(C(F)(F)F)c4)cc3)cc2-c2ccncc2)cc1Cl | 1.81 µM | 4.44 µM |
| O=C(CCC1OCCO1)Nc1cc(NCc2ccccc2)ccc1OCc1ccccc1 | – | > 100 µM |
| ClCc1cccc(Cn2cnc3nc(Cl)nc(Cl)c32)c1 | 0.234 µM | 0.694 µM |

test system: MDA-MB-435; test: DTP human tumour cell line panel, 48 h

| Structure (SMILES) | GI50 | TGI |
| --- | --- | --- |
| COc1ccc(-c2nn(-c3ccc(NC(=O)Nc4cc(C(F)(F)F)cc(C(F)(F)F)c4)cc3)cc2-c2ccncc2)cc1Cl | 3.03 µM | > 100 µM |
| O=C(CCC1OCCO1)Nc1cc(NCc2ccccc2)ccc1OCc1ccccc1 | – | 63.9 µM |
| ClCc1cccc(Cn2cnc3nc(Cl)nc(Cl)c32)c1 | 1.65 µM | 3.16 µM |

test system: MOLT-4 leukemia; test: DTP human tumour cell line panel, 48 h

| Structure (SMILES) | GI50 | TGI |
| --- | --- | --- |
| Cc1ncc(CCCN(C)C)cc1Nc1ncc2c(n1)-c1ccc(C(F)(F)F)cc1NC(=S)C2 | < 0.0156 µM | 16.6 µM |
| O=C(CCC1OCCO1)Nc1cc(NCc2ccccc2)ccc1OCc1ccccc1 | – | 81.5 µM |
| ClCc1cccc(Cn2cnc3nc(Cl)nc(Cl)c32)c1 | 1.17 µM | 2.7 µM |

test system: NCI-H226 lung; test: DTP human tumour cell line panel, 48 h

| Structure (SMILES) | GI50 | TGI |
| --- | --- | --- |
| Cc1ncc(CCCN(C)C)cc1Nc1ncc2c(n1)-c1ccc(C(F)(F)F)cc1NC(=S)C2 | 0.659 µM | 15.7 µM |
